Test results as given in US8833457B2, “Sulfates and phosphates as allosteric effectors in mannanohydrolase enzyme breakers” (Baker Hughes Incorporated, priority 2011, dated 2014).

Test system: mannanohydrolase, GBW-22C
Test: Viscosity reduction of borate-crosslinked guar gel by mannanohydrolase enzyme breaker with allosteric effector (Chandler HTHP 5500 Viscometer)
Format: biochemical
Settings: 150° F., 500 psi
Procedure: A solution was made comprising: 17 ppt of guar polymer, GW-3LDF; 1 gpt of clay stabilizer, Claytreat-3C; 1.5 gpt of buffer, BF-7L; 1 gpt of crosslinking agent, XLW-32; 1 gpt mannanohydrolase, GBW-22C, diluted 1/100 with distilled water; and 1 gpt of a 1% wt. solution of Na2SO4 (all components available from Baker Hughes Inc.). The solution was mixed with an overhead stirrer. 52 mL of crosslinked fluid was loaded on to a Chandler HTHP 5500 Viscometer and run at 500 psi, 150° F., and 100 s^−1 for an hour.
To compare the effects of phosphate and sulfate a solution was made comprising: 17 ppt of guar polymer, GW-3LDF; 1 gpt of clay stabilizer, Claytreat-3C; 1.5 gpt of buffer, BF-7L; 1 gpt of crosslinking agent, XLW-32; 1 gpt mannanohydrolase, GBW-22C, diluted 1/100 with distilled water; and 1 gpt of a 1% wt. solution of K2HPO4 (all components available from Baker Hughes Inc.).

- difference in enzyme activity between high and smaller concentrations of the effector (FIG. 3) (3 g/L versus 1 gpt 20% wt. Na2SO4 or 2 mg/L, 100 s^−1): does not appear to be a difference
Compound: O=S(=O)([O-])[O-].[Na+].[Na+] [Na2SO4]
- effect of the effector on activity of the mannanohydrolase enzyme against the guar polymer (FIG. 3) (17 ppt GW-3LDF guar, XLW-32 crosslinker, 1 gpt GBW-22C diluted 1/100, 1 gpt of 1% wt. Na2SO4, 100 s^−1, one hour): drastically improves the activity of the mannanohydrolase enzyme
